# According to PubChem BioAssay AID280 (DTP/NCI, 2004):
# Several values for one entry are separate records, joined by “and”; a condition that tells them apart may be missing. Equal values may be shown once. Inconclusive results and toxic doses are left out.
# Tested on: nude mice, LOX melanoma ip, survival T/C
# Assay: NCI In Vivo Anticancer Drug Screen. Data for tumor model Human Amelanotic Melanoma (LOX) (intraperitoneal) in NU/NU BALB/C (nude) mice
# Details: endpoint: median survival time, schedule: Q04DX003 (ip), higher = longer survival
# Description: The antitumor activity of compounds was measured in mice bearing transplantable tumors. Survival or tumor size were measured and the results are expressed as the measurement made in the treated group (T) divided by the measurement made in the vehicle treated control group (C). The tumor model used in this assay is Human Amelanotic Melanoma (LOX) (intraperitoneal) in NU/NU BALB/C (nude) mice
# [1] = dose: 6.25 mg/kg/injection, vehicle: Klucel (hydroxypropylcellulose) (HPC)
# [2] = dose: 25.0 mg/kg/injection, vehicle: Klucel (hydroxypropylcellulose) (HPC)
# [3] = dose: 50.0 mg/kg/injection, vehicle: Klucel (hydroxypropylcellulose) (HPC)
# [4] = dose: 100.0 mg/kg/injection, vehicle: Klucel (hydroxypropylcellulose) (HPC)
# [5] = dose: 75.0 mg/kg/injection, vehicle: saline with Tween-80
# [6] = dose: 300.0 mg/kg/injection, vehicle: saline with Tween-80
# [7] = dose: 600.0 mg/kg/injection, vehicle: saline with Tween-80
# [8] = dose: 25.0 mg/kg/injection, vehicle: saline
# [9] = dose: 50.0 mg/kg/injection, vehicle: saline
# [10] = dose: 100.0 mg/kg/injection, vehicle: saline
structure (smiles),measurement,setting,value
O=C1c2ccccc2C(=O)c2c1cn1c2Cc2ccccc2C1,T/C,[1],91 % of control
same,T/C,[2],93 % of control
same,T/C,[3],109 % of control and 95 % of control
same,T/C,[4],90 % of control
same,T/C,"dose: 200.0 mg/kg/injection, vehicle: Klucel (hydroxypropylcellulose) (HPC)",91 % of control
same,T/C,"dose: 400.0 mg/kg/injection, vehicle: Klucel (hydroxypropylcellulose) (HPC)",95 % of control
CN=C(N)N/N=C(\C)c1ccc2sc3ccc(/C(C)=N/NC(N)=NC)cc3c2c1,T/C,"dose: 37.5 mg/kg/injection, vehicle: saline with Tween-80",121 % of control
same,T/C,[5],117 % of control
same,T/C,[6],182 % of control
same,T/C,[7],116 % of control
NCCSC(C[N+](=O)[O-])c1ccccc1Cl (stereo not drawn),T/C,"dose: 12.5 mg/kg/injection, vehicle: saline",107 % of control
same,T/C,[8],115 % of control
same,T/C,[9],96 % of control
C/C(=N\NC(=O)c1ccccc1O)c1cccc(/C(C)=N/NC(=O)c2ccccc2O)n1,T/C,[9],116 % of control
same,T/C,[10],154 % of control
CCOc1ccc(C(C)c2cc3c(cc2OC)OCO3)cc1 (stereo not drawn),T/C,"dose: 150.0 mg/kg/injection, vehicle: distilled water + Tween-80",177 % of control
same,T/C,"dose: 300.0 mg/kg/injection, vehicle: distilled water + Tween-80",161 % of control and 163 % of control
same,T/C,"dose: 600.0 mg/kg/injection, vehicle: distilled water + Tween-80",226 % of control and 252 % of control
N/C(=N/N=C/c1cc(Br)cc(Br)c1O)NO,T/C,"dose: 25.0 mg/kg/injection, vehicle: suspension in saline",98 % of control
same,T/C,"dose: 50.0 mg/kg/injection, vehicle: suspension in saline",96 % of control
same,T/C,"dose: 100.0 mg/kg/injection, vehicle: suspension in saline",86 % of control
O=C1c2cccc(NCCNCCO)c2C(=O)c2cccc(NCCNCCO)c21,T/C,"dose: 4.69 mg/kg/injection, vehicle: suspension in saline",122 % of control
same,T/C,"dose: 9.38 mg/kg/injection, vehicle: suspension in saline",120 % of control
c1ccc2[nH]c(CN(CCN(Cc3nc4ccccc4[nH]3)Cc3nc4ccccc4[nH]3)Cc3nc4ccccc4[nH]3)nc2c1,T/C,"dose: 6.25 mg/kg/injection, vehicle: DMSO",102 % of control
same,T/C,"dose: 12.5 mg/kg/injection, vehicle: DMSO",110 % of control
same,T/C,"dose: 25.0 mg/kg/injection, vehicle: DMSO",113 % of control
same,T/C,"dose: 50.0 mg/kg/injection, vehicle: DMSO",111 % of control
O=C1c2c(O)ccc(O)c2C(=O)c2c(NCCNCCO)ccc(NCCNCCO)c21,T/C,"dose: 0.45 mg/kg/injection, vehicle: other",168 % of control and 167 % of control
same,T/C,"dose: 0.75 mg/kg/injection, vehicle: other",375 % of control and 187 % of control
same,T/C,"dose: 1.25 mg/kg/injection, vehicle: other",256 % of control and 265 % of control
same,T/C,"dose: 1.25 mg/kg/injection, vehicle: water",218 % of control
same,T/C,"dose: 2.0 mg/kg/injection, vehicle: other",187 % of control
same,T/C,"dose: 2.08 mg/kg/injection, vehicle: other",88 % of control
same,T/C,"dose: 2.5 mg/kg/injection, vehicle: water",120 % of control
CCOC(=O)c1ccc(NN=NCCF)cc1,T/C,"dose: 75.0 mg/kg/injection, vehicle: distilled water + Tween-80 + alcohol",111 % of control
same,T/C,"dose: 150.0 mg/kg/injection, vehicle: distilled water + Tween-80 + alcohol",106 % of control
same,T/C,"dose: 300.0 mg/kg/injection, vehicle: distilled water + Tween-80 + alcohol",110 % of control
same,T/C,"dose: 600.0 mg/kg/injection, vehicle: distilled water + Tween-80 + alcohol",100 % of control
Cc1nc2c(N)cc(Cl)cc2[nH]1,T/C,"dose: 50.0 mg/kg/injection, vehicle: saline with Tween-80",114 % of control
same,T/C,"dose: 100.0 mg/kg/injection, vehicle: saline with Tween-80",112 % of control
same,T/C,"dose: 200.0 mg/kg/injection, vehicle: saline with Tween-80",99 % of control
COC1=C(OC)C(=O)C(N(C)C)=C(CO)C1=O,T/C,[8],116 % of control
same,T/C,[9],103 % of control
same,T/C,[10],104 % of control
same,T/C,"dose: 200.0 mg/kg/injection, vehicle: saline",117 % of control
Cc1cc(O)c2c(c1O)C(=O)C13C(=C2O)C(=O)C2C(O)C1C1C(O)C3C(=O)C3=C(O)c4c(O)cc(C)c(O)c4C(=O)C321 (stereo not drawn),T/C,"dose: 6.25 mg/kg/injection, vehicle: saline with Tween-80",114 % of control
CC1=NN(c2cccc(S(=O)(=O)O)c2)C(=O)C1N=Nc1cc(Cl)cc(S(=O)(=O)O)c1O.CC1=NN(c2cccc(S(=O)(=O)O)c2)C(=O)C1N=Nc1cc(Cl)cc(S(=O)(=O)O)c1O.[Cr] (stereo not drawn),T/C,"dose: 75.0 mg/kg/injection, vehicle: suspension in saline",97 % of control
same,T/C,"dose: 150.0 mg/kg/injection, vehicle: suspension in saline",94 % of control
same,T/C,"dose: 300.0 mg/kg/injection, vehicle: suspension in saline",87 % of control
COc1cccc2c1C(=O)C1=C(C2=O)c2c(O)cc(CO)cc2C(O)C1O (stereo not drawn),T/C,"dose: 6.25 mg/kg/injection, vehicle: saline + Tween-80 + alcohol",98 % of control
same,T/C,"dose: 12.5 mg/kg/injection, vehicle: saline + Tween-80 + alcohol",109 % of control
same,T/C,"dose: 25.0 mg/kg/injection, vehicle: saline + Tween-80 + alcohol",112 % of control
same,T/C,"dose: 50.0 mg/kg/injection, vehicle: saline + Tween-80 + alcohol",109 % of control
OCC(O)C(O)C(O)C(O)CO (stereo not drawn),T/C,"dose: 75.0 mg/kg/injection, vehicle: saline",97 % of control
same,T/C,"dose: 150.0 mg/kg/injection, vehicle: saline",102 % of control
same,T/C,"dose: 300.0 mg/kg/injection, vehicle: saline",97 % of control
same,T/C,"dose: 600.0 mg/kg/injection, vehicle: saline",106 % of control
same,T/C,"dose: 1200.0 mg/kg/injection, vehicle: saline",104 % of control
Cn1c(=S)sc2nc3ccccc3n2c1=S,T/C,"dose: 30.0 mg/kg/injection, vehicle: saline with Tween-80",122 % of control
same,T/C,"dose: 60.0 mg/kg/injection, vehicle: saline with Tween-80",100 % of control
same,T/C,"dose: 120.0 mg/kg/injection, vehicle: saline with Tween-80",104 % of control
same,T/C,"dose: 240.0 mg/kg/injection, vehicle: saline with Tween-80",108 % of control
same,T/C,"dose: 480.0 mg/kg/injection, vehicle: saline with Tween-80",94 % of control
CN(C=O)C(C(=O)Nc1cccc2c(OC(=O)C(N(C)C=O)(N(C)C=O)N(C)C=O)c(N=Nc3ccc(S(=O)(=O)Nc4nccs4)cc3)cc(N=Nc3ccc(S(=O)(=O)Nc4nccs4)cc3)c12)(N(C)C=O)N(C)C=O (tested in a mixture with another compound),T/C,[5],101 % of control
same,T/C,"dose: 150.0 mg/kg/injection, vehicle: saline with Tween-80",99 % of control
same,T/C,[6],89 % of control
same,T/C,[7],95 % of control
same,T/C,"dose: 1200.0 mg/kg/injection, vehicle: saline with Tween-80",93 % of control
O=C(/C=C/c1cccnc1)/C=C/c1cccnc1,T/C,[1],104 % of control
same,T/C,"dose: 12.5 mg/kg/injection, vehicle: Klucel (hydroxypropylcellulose) (HPC)",105 % of control
same,T/C,[2],111 % of control
same,T/C,[3],116 % of control
same,T/C,[4],88 % of control
